# From PMC12057336 (Antimicrobial Agents and Chemotherapy, 2025)
# Like-named read-outs stand apart in the source and are kept apart here.
# Experiments:
# [1] = target: human OATP1B1 (Homo sapiens, UniProt Q9Y6L6); settings: 5 µM; 10 min; 37°C; vs mock cells
# Description: (§1) OATP1B1-, OATP1B3-, OATP2B1-, NTCP-, OAT1-, and OAT3-transfected HEK293 cells were cultured in DMEM supplemented with 10% FBS, 100 U/mL penicillin-streptomycin at 37°C with 95% relative humidity atmosphere containing 5% CO2. All cells were seeded in 24-well plates at a density of 4 × 10^5 cells/well and cultured for 1–2 days until they reached 80%–90% confluence. Prior to the initiation of uptake studies, the cells were washed twice with HBSS buffer at 37°C. Membrane vesicles were stored at −80°C and thawed at 37°C prior to the initiation of the studies.
# (§2) All uptake tests were performed in triplicates. The activities of transporter-transfected HEK293 cells were evaluated using relevant positive substrates and inhibitors. E17G (5 µM, OATP1B1 and OATP1B3), ES (2 µM, OATP2B1), ES (5 µM, OAT3), TCA (10 µM, NTCP), and PAH (20 µM, OAT1) were used as substrates of the transporters. The inhibitors for each transporter were rifampicin (200 µM, OATP1B1 and OATP1B3), erlotinib (10 µM, OATP2B1), CsA (20 µM, NTCP), and probenecid (200 µM, OAT1 and OAT3).
# (§3) The cells were washed three times with ice-cold HBSS buffer. […] The total protein concentration was measured using a BCA Protein Assay Kit. The uptake rates of HEK293-OATP1B1, HEK293-OATP1B3, HEK293-OATP2B1, HEK293-NTCP, HEK293-OAT1, HEK293-OAT3, and mock cells were calculated. […]
# [2] = target: human OATP1B3 (Homo sapiens, UniProt Q9NPD5); settings: 5 µM; 10 min; 37°C; vs mock cells
# Sequence of human OATP1B3 (Q9NPD5 whole entry): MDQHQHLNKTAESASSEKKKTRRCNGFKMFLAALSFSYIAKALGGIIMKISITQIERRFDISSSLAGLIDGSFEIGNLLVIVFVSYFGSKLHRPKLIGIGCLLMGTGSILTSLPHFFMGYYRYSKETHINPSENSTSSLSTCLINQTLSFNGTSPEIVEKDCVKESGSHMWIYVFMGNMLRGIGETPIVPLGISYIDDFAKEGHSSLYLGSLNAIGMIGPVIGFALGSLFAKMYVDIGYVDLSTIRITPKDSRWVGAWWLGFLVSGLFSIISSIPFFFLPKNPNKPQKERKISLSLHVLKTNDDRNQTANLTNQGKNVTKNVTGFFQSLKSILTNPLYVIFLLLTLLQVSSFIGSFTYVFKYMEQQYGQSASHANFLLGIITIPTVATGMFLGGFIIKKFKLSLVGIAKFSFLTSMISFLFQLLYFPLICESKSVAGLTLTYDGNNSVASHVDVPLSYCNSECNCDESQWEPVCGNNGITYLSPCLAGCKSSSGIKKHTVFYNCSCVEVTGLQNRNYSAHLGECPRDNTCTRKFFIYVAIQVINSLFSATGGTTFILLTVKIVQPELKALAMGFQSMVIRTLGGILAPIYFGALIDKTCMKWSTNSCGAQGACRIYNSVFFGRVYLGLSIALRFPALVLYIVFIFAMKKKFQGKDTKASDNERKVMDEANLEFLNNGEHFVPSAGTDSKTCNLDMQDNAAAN
# Description: as §1, §2, §3
# [3] = target: T1, human OATP2B1 (Homo sapiens, UniProt O94956); test: Uptake in OATP2B1-transfected HEK293 cells; settings: 5 µM; 10 min; 37°C; vs mock cells
# T1 sequence (O94956 1-709): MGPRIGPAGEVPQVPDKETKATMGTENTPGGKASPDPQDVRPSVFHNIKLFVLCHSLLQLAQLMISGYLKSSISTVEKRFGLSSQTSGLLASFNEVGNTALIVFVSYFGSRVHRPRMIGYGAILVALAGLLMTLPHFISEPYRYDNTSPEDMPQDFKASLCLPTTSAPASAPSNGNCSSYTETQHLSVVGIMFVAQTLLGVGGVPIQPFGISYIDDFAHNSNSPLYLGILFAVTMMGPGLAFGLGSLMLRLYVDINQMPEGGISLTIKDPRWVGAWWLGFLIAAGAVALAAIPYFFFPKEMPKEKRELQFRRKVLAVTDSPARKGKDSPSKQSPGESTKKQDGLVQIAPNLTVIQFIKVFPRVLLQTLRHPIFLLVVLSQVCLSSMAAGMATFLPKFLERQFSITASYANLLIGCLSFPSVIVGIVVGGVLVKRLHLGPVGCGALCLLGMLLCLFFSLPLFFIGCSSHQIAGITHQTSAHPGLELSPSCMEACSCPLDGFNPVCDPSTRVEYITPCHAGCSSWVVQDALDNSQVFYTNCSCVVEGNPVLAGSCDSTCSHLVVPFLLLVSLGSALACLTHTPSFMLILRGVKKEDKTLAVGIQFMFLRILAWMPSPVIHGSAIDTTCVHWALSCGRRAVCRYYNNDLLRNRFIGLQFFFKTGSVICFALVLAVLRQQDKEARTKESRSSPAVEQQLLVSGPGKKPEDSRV
# Description: as §1, §2, §3
# [4] = target: T2, human NTCP (Homo sapiens, UniProt Q14973); test: Uptake in NTCP-transfected HEK293 cells; settings: 5 µM; 10 min; 37°C; vs mock cells
# T2 sequence (Q14973 1-349): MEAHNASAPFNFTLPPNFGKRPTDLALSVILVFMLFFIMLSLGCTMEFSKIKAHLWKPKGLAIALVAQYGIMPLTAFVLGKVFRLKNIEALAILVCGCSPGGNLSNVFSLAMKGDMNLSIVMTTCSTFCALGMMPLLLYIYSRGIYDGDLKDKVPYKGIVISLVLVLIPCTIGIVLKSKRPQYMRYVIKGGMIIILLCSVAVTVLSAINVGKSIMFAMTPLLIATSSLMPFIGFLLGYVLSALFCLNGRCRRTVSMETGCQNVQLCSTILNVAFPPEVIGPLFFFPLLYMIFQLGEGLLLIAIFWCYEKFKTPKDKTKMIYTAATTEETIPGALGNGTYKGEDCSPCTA
# Description: as §1, §2, §3
# [5] = system: MAT1; design: method as in PMID 27645247, PMID 26976869, PMID 27550354; settings: cited from earlier work
# [6] = cited from earlier work; for median plasma concentration: standard doses
# [7] = system: MATE1; settings: cited from earlier work
# [8] = system: MATE2-K; settings: cited from earlier work
# [9] = system: OAT1; settings: cited from earlier work
# [10] = system: OAT3; settings: cited from earlier work
# [11] = system: OATP1B3; settings: cited from earlier work
# [12] = system: OCT1; settings: cited from earlier work
# [13] = thrombocytopenic patients with moderate renal failure
# Sequence of human OATP1B1 (Q9Y6L6 whole entry): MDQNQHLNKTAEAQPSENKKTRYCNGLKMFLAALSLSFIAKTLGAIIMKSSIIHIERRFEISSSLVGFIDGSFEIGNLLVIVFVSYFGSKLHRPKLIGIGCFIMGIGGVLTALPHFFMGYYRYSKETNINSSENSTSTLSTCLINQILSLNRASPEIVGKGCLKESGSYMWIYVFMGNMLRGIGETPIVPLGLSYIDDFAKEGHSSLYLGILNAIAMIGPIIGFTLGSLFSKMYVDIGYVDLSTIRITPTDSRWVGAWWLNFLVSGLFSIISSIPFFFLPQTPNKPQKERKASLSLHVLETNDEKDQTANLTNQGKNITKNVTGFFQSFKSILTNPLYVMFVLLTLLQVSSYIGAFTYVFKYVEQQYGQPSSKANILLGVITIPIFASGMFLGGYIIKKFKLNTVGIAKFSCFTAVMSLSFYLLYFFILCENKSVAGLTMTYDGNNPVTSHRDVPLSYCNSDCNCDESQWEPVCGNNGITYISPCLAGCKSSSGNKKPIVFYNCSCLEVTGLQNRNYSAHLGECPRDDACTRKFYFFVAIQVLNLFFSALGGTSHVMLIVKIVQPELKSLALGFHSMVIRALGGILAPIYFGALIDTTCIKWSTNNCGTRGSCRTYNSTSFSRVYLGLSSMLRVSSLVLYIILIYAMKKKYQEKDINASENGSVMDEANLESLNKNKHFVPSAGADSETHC
compound,measurement,setting,value
CC(=O)NC[C@H]1CN(c2ccc(N3CCOCC3)c(F)c2)C(=O)O1 [Linezolid],substrate for OATP1B1,[1],not a substrate
same,substrate for OATP1B3,[2],not a substrate
same,substrate for OATP2B1,[3],not a substrate
same,substrate for NTCP,[4],not a substrate
same,inhibitor of MAT1,[5],not an inhibitor
same,administered dose excreted in the urine as the parent drug,[6],35%
same,apparent volume of distribution (Vd),[6],40 to 50 L
same,elimination half-life (t1/2),[6],5 to 7 h
same,total clearance (CL),[6],80 mL/min
same,median plasma concentration,[6]; controls without liver cirrhosis,2.70 mg/L
same,mean recovery of linezolid radioactivity in excreta,[6]; healthy volunteers,93.8%
same,radioactivity excreted in the feces,[6]; healthy volunteers,9.9%
same,radioactivity excreted in the urine,[6]; healthy volunteers,83.9%
same,share of dosed linezolid in the urine,[6]; humans,more than 30%
same,CL,[6]; patient with acute-on-chronic liver failure,1.54 L/h
same,median plasma concentration,[6]; patients with liver cirrhosis,20.6 mg/L
same,median trough concentration,[6]; patients with mild hepatic impairment,5.51 mg/L
same,median trough concentration,[6]; patients with moderate hepatic impairment,6.70 mg/L
same,median trough concentration,[6]; patients with severe hepatic impairment,20.7 mg/L
same,CL,[6]; patients without concomitant liver failure,6.26 L/h
same,AUC0-24,[6]; [13],513.1 to 994.6 µg·h/mL
same,trough concentration,[6]; [13],14.4 to 35.6 mg/L
same,substrate for MATE1,[7],not a substrate
same,substrate for MATE2-K,[8],not a substrate
same,inhibitor of OAT1,[9],inhibitor
same,inhibitor of OAT3,[10],inhibitor
same,inhibitor of OATP1B3,[11],inhibitor
same,inhibitor of OCT1,[12],not an inhibitor
